Where two headings read alike, the source gives them in different places.
Assays:
[1] = cited from earlier work; for Glass transition temperature: at dry conditions; for Tg / Tg′: comparison with inulin
[2] = Solubility of THC in water; details: 20 °C, thermodynamic from solid, stirred 3 days
[3] = THC-analysis control experiments (degradation of THC in methanol); type: physicochemical
[4] = Dynamic vapour sorption (gravimetric sorption analyser); type: physicochemical; details: after exposure to 90% RH
Procedure: Water sorption isotherm of freeze dried inulin was measured at ambient pressures and 25° C. using a gravimetric sorption analyser (DVS-1000 Water Sorption Instrument, Surface Measurement Systems Limited, London, UK). The uptake of water by inulin was measured from 0% to 90% RH with steps of 10% RH. The initial sample weight was about 10 mg. It was assumed that equilibrium was reached when the change of weight was less than 0.9 μg during a ten minutes period.
The water sorption of THC was determined according to the procedure described above for inulin. The THC was dissolved in methanol before it was put in the DVS-1000 instrument. During initial exposure to a dry nitrogen flow, the methanol was evaporated. As soon as about 90% of the solvent was evaporated, additional THC solution was added to the sample-cup. This procedure was repeated until 15 mg of pure THC was present in the sample cup. After the evaporation of the last methanol, the relative humidity was increased from 0% to 90% in steps of 10%.

[5] = Stability (no clouding) of water-alcohol solutions of inulin and THC; type: physicochemical; details: 0.4% w/v THC
Procedure: The suitable volume ratio of water/alcohol was investigated by testing the stability of 10% w/v inulin solutions with different ratio's water/alcohol. Inulin was dissolved in different amounts of water (3 to 7 mL). Subsequently different amounts of alcohol were added until a total volume of 10 mL. For THC the same procedure was followed, but now water was added to the alcoholic THC solution. The solution was judged as sufficiently stable if no clouding appeared within the time of processing. For spray drying batches were made which required up to half an hour of spraying. Therefore the solution should be clear for at least that period of time. For freeze drying the solution should be clear until it is frozen. In this case ten minutes is sufficient. Furthermore, it was investigated whether the aqueous inulin solution could be added slowly or should be mixed instantaneously.
The three relevant alcohol's were added to a solution of inulin in water. It was determined for how long the obtained solution stayed clear. After 1 g of inulin was dissolved in 4 mL water, water and/or alcohol was added to a total volume of 10 mL, yielding a 10% w/v solution. The largest concentration of alcohol was thus obtained. THC was dissolved in the alcohol of interest. Subsequently, alcohol and/or water was added to give 0.4% w/v solutions.

[6] = Modulated DSC, thermal behavior of THC; type: physicochemical; details: mDSC thermogram of THC
Procedure: The thermal behavior of THC was determined by mDSC. A modulation amplitude of ±0.318° C. every 60 sec and a heating rate of 2° C./min was used. During measurement, the sample cell was purged with nitrogen at a flow rate of 35 mL/min. A blob of pure THC was put in the sample cup. After initial cooling the sample was first scanned till 50° C. In this way the blob was able to spread over the entire bottom of the sample pan, thereby increasing the surface available for heat transfer during the second scan. The sample was then cooled until −40° C. and heated to 350° C.

## OC[C@@H](O)[C@@H](O[C@H]1O[C@H](CO)[C@@H](O)[C@H](O)[C@H]1O)[C@H](O)[C@@H](O)CO [Maltitol, maltitol]
[1]
  Glass transition temperature: 44 °C

## CCCCCc1cc(O)c2c(c1)OC(C)(C)[C@@H]1CCC(C)=C[C@@H]21 [THC, Δ^9-tetrahydrocannabinol]
[2]
  solubility at 3 days: < 1 µg/mL
[3]; solutions in methanol, 2 weeks at 4° C.
  Degradation of THC calibration solutions: no significant degradation
[3]; ten minutes ultrasonic treatment in methanol
  Degradation of THC by ultrasonic treatment: no degradation
[3]; two days of extraction in methanol
  Degradation of THC during extraction: no significant degradation
[4]
  Water absorbed: 0.3%
[5]; EtOH (ethanol)
  % v/v water for a stable solution: ≤ 53% maximum % v/v
[5]; TBA (t-butanol)
  % v/v water for a stable solution: ≤ 63% maximum % v/v
[5]; n-PrOH (n-propanol)
  % v/v water for a stable solution: ≤ 62% maximum % v/v
[6]
  Onset of endothermic peak (evaporation): 200 °C
  Tg: 10 °C

## OC[C@@H](O)[C@@H](O[C@@H]1O[C@H](CO)[C@H](O)[C@H](O)[C@H]1O)[C@H](O)[C@@H](O)CO [lactitol]
[1]
  Glass transition temperature: 33 °C

## OC[C@H]1O[C@@](CO)(O[C@H]2O[C@H](CO)[C@@H](O)[C@H](O)[C@H]2O)[C@@H](O)[C@@H]1O [sucrose]
[1]
  Tg: 76 °C
  Tg′: −39 °C

## OC[C@H]1O[C@H](O[C@H]2O[C@H](CO)[C@@H](O)[C@H](O)[C@H]2O)[C@H](O)[C@@H](O)[C@@H]1O [trehalose]
[1]
  Tg: 120 °C
  Tg′: −36 °C

Reference: US20030229027A1, “Stabilized natural cannabinoid formulation” (priority 2002, published 2003)
